Measured values as given in PubChem BioAssay AID2060483 (Molecular Pharmacology Branch, DTP, NCI, 2025).
Each block holds one compound with its values, some of them ahead of it.

System: K24384-001-R-PDC complex spheroids, viability
Assay: Anticancer human tumor K24384-001-R-PDC patient-derived pancreatic adenocarcinoma cell line growth inhibition [GQUAD]
Conditions: for IC50: curve of first compound; for viability, T/C: stronger effect = lower value
Outline: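 Multi-cell-type spheroids of tumor cells with HUVEC and mesenchymal stem cells, treated with drug combinations. Concentrations descend in half-log steps from near clinical Cmax, or from 10 microM where Cmax is unknown; viability read-out.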

[1] = second compound 0.0316 µM, first compound 0.0316 µM
[2] = second compound 0.0316 µM, first compound 0.316 µM
[3] = second compound 0.1 µM, first compound 0.0316 µM
[4] = second compound 0.1 µM, first compound 0.316 µM
[5] = second compound 0.316 µM, first compound 0.0316 µM
[6] = second compound 0.316 µM, first compound 0.316 µM
[7] = second compound 1 µM, first compound 0.0316 µM
[8] = second compound 1 µM, first compound 0.316 µM
[9] = second compound 3.16 µM, first compound 0.0316 µM
[10] = second compound 3.16 µM, first compound 0.316 µM
[11] = second compound 10 µM, first compound 0.0316 µM
[12] = second compound 10 µM, first compound 0.316 µM
[13] = second compound 0.0316 µM, first compound 0.1 µM
[14] = second compound 0.0316 µM, first compound 1 µM
[15] = second compound 0.0316 µM, first compound 3.16 µM
[16] = second compound 0.0316 µM, first compound 10 µM
[17] = second compound 0.1 µM, first compound 0.1 µM
[18] = second compound 0.1 µM, first compound 1 µM
[19] = second compound 0.1 µM, first compound 3.16 µM
[20] = second compound 0.1 µM, first compound 10 µM
[21] = second compound 0.316 µM, first compound 0.1 µM
[22] = second compound 0.316 µM, first compound 1 µM
[23] = second compound 0.316 µM, first compound 3.16 µM
[24] = second compound 0.316 µM, first compound 10 µM
[25] = second compound 1 µM, first compound 0.1 µM
[26] = second compound 1 µM, first compound 1 µM
[27] = second compound 1 µM, first compound 3.16 µM
[28] = second compound 1 µM, first compound 10 µM
[29] = second compound 3.16 µM, first compound 0.1 µM
[30] = second compound 3.16 µM, first compound 1 µM
[31] = second compound 3.16 µM, first compound 3.16 µM
[32] = second compound 3.16 µM, first compound 10 µM
[33] = second compound 10 µM, first compound 0.1 µM
[34] = second compound 10 µM, first compound 1 µM
[35] = second compound 10 µM, first compound 3.16 µM
[36] = second compound 10 µM, first compound 10 µM
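Further: spheroids exposed to compounds for seven days.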

IC50 (second compound 0.0316 µM): > 316 nM
IC50 (second compound 0.1 µM): 214 nM
IC50 (second compound 0.316 µM): 137 nM
IC50 (second compound 1 µM): < 0.999 nM
IC50 (second compound 3.16 µM): < 0.999 nM
IC50 (second compound 10 µM): < 0.999 nM
SMILES: CC[C@@]1(O)C(=O)OCc2c1cc1n(c2=O)Cc2cc3c(CN(C)C)c(O)ccc3nc2-1 + Cc1cnc(CNC(=O)c2c(=O)c3ccc(N4CCCN(C)CC4)nc3n3c2sc2ccccc23)cn1
viability, T/C (second compound 0.0316 µM, first compound 0.000999 µM): 96.3%
viability, T/C (second compound 0.0316 µM, first compound 0.00316 µM): 71.1%
viability, T/C (second compound 0.0316 µM, first compound 0.00999 µM): 105%
viability, T/C [1]: 64.1%
viability, T/C (second compound 0.0316 µM, first compound 0.0999 µM): 58.5%
viability, T/C [2]: 44.1%
viability, T/C (second compound 0.1 µM, first compound 0.000999 µM): 64.1%
viability, T/C (second compound 0.1 µM, first compound 0.00316 µM): 69%
viability, T/C (second compound 0.1 µM, first compound 0.00999 µM): 64.8%
viability, T/C [3]: 58%
viability, T/C (second compound 0.1 µM, first compound 0.0999 µM): 56.5%
viability, T/C [4]: 47.1%
viability, T/C (second compound 0.316 µM, first compound 0.000999 µM): 56.1%
viability, T/C (second compound 0.316 µM, first compound 0.00316 µM): 55.2%
viability, T/C (second compound 0.316 µM, first compound 0.00999 µM): 47.8%
viability, T/C [5]: 49.9%
viability, T/C (second compound 0.316 µM, first compound 0.0999 µM): 60.3%
viability, T/C [6]: 39.8%
viability, T/C (second compound 1 µM, first compound 0.000999 µM): 40.7%
viability, T/C (second compound 1 µM, first compound 0.00316 µM): 51.3%
viability, T/C (second compound 1 µM, first compound 0.00999 µM): 36.5%
viability, T/C [7]: 42.7%
viability, T/C (second compound 1 µM, first compound 0.0999 µM): 46%
viability, T/C [8]: 37.6%
viability, T/C (second compound 3.16 µM, first compound 0.000999 µM): 34.8%
viability, T/C (second compound 3.16 µM, first compound 0.00316 µM): 39.1%
viability, T/C (second compound 3.16 µM, first compound 0.00999 µM): 34.3%
viability, T/C [9]: 39.6%
viability, T/C (second compound 3.16 µM, first compound 0.0999 µM): 40.5%
viability, T/C [10]: 30%
viability, T/C (second compound 10 µM, first compound 0.000999 µM): 34.1%
viability, T/C (second compound 10 µM, first compound 0.00316 µM): 22.9%
viability, T/C (second compound 10 µM, first compound 0.00999 µM): 36.3%
viability, T/C [11]: 38.4%
viability, T/C (second compound 10 µM, first compound 0.0999 µM): 21.2%
viability, T/C [12]: 0.39%

IC50 (second compound 0.0316 µM): 1240 nM
IC50 (second compound 0.1 µM): 497 nM
IC50 (second compound 0.316 µM): 120 nM
IC50 (second compound 1 µM): < 31.6 nM
IC50 (second compound 3.16 µM): < 31.6 nM
IC50 (second compound 10 µM): < 31.6 nM
SMILES: COc1ccc([C@@H](O)c2cc(-c3ncnc4cc(N5CCOCC5)ccc34)c(F)cc2Cl)nn1 + Cc1cnc(CNC(=O)c2c(=O)c3ccc(N4CCCN(C)CC4)nc3n3c2sc2ccccc23)cn1
viability, T/C [1]: 89.9%
viability, T/C [13]: 81.5%
viability, T/C [2]: 70.8%
viability, T/C [14]: 45.9%
viability, T/C [15]: 43.8%
viability, T/C [16]: 23.6%
viability, T/C [3]: 57.2%
viability, T/C [17]: 68.7%
viability, T/C [4]: 46.5%
viability, T/C [18]: 42.3%
viability, T/C [19]: 39.1%
viability, T/C [20]: 17.6%
viability, T/C [5]: 48.6%
viability, T/C [21]: 57.6%
viability, T/C [6]: 43.1%
viability, T/C [22]: 41.5%
viability, T/C [23]: 34%
viability, T/C [24]: 12.6%
viability, T/C [7]: 40.5%
viability, T/C [25]: 59.9%
viability, T/C [8]: 35.4%
viability, T/C [26]: 34.1%
viability, T/C [27]: 21.7%
viability, T/C [28]: 12.7%
viability, T/C [9]: 36.7%
viability, T/C [29]: 41.9%
viability, T/C [10]: 33.4%
viability, T/C [30]: 29.8%
viability, T/C [31]: 24.6%
viability, T/C [32]: 10.2%
viability, T/C [11]: 28.1%
viability, T/C [33]: 29.9%
viability, T/C [12]: 27.4%
viability, T/C [34]: 27.4%
viability, T/C [35]: 16.8%
viability, T/C [36]: 0.52%

SMILES: CC(C)n1c(=O)n(C)c2cnc3cc(F)c(-c4ccc(OCCCN5CCCCC5)nc4)cc3c21 + Cc1[nH]c2ccc(F)cc2c1-c1nc2c3cccnc3c3ncccc3c2[nH]1
IC50 (second compound 0.0316 µM): > 10000 nM
IC50 (second compound 0.1 µM): > 10000 nM
IC50 (second compound 0.316 µM): > 10000 nM
IC50 (second compound 1 µM): > 10000 nM
IC50 (second compound 3.16 µM): > 10000 nM
IC50 (second compound 10 µM): > 10000 nM
viability, T/C [1]: 108%
viability, T/C [13]: 96.1%
viability, T/C [2]: 126%
viability, T/C [14]: 110%
viability, T/C [15]: 122%
viability, T/C [16]: 87.5%
viability, T/C [3]: 92.1%
viability, T/C [17]: 129%
viability, T/C [4]: 110%
viability, T/C [18]: 116%
viability, T/C [19]: 157%
viability, T/C [20]: 91.7%
viability, T/C [5]: 87.1%
viability, T/C [21]: 100%
viability, T/C [6]: 100%
viability, T/C [22]: 96.6%
viability, T/C [23]: 125%
viability, T/C [24]: 146%
viability, T/C [7]: 104%
viability, T/C [25]: 107%
viability, T/C [8]: 101%
viability, T/C [26]: 99.1%
viability, T/C [27]: 134%
viability, T/C [28]: 107%
viability, T/C [9]: 78.6%
viability, T/C [29]: 89.2%
viability, T/C [10]: 79.9%
viability, T/C [30]: 99.4%
viability, T/C [31]: 99.1%
viability, T/C [32]: 83.3%
viability, T/C [11]: 71.9%
viability, T/C [33]: 73.4%
viability, T/C [12]: 71.1%
viability, T/C [34]: 96.3%
viability, T/C [35]: 79.4%
viability, T/C [36]: 72.1%
